The numbers were not newly measured in patent US20160339010A1, “Treatment of Partly Controlled or Uncontrolled Severe Asthma” (TAKEDA GMBH, priority 2014, published 2016), which cites them from elsewhere.

In series [1] the test system is patients with severe and uncontrolled bronchial asthma. The following applies: on top of Fluticasone 500 mcg/Salmeterol 50 mcg twice daily; cited from earlier work.
Series [2] concerns patients with high-dose corticosteroid dependent asthma. Conditions: cited from earlier work.
Another series deals with asthma patients. Conditions: cited from earlier work.

On to `O=C(Nc1c(Cl)cncc1Cl)c1ccc(OC(F)F)c(OCC2CC2)c1` [Roflumilast], for which, in series [1], the FEV1 entry is “significantly improved”, the “Forced vital capacity (FVC)” value is listed as “significantly improved”, the “accumulation of neutrophils in induced sputum” value was “reduced” and the “morning PEF” value is on record as “significantly improved”.
With `CC(C)(O)c1ccccc1CC[C@@H](SCC1(CC(=O)[O-])CC1)c1cccc(/C=C/c2ccc3ccc(Cl)cc3n2)c1.[Na+]` [montelukast, [R-(E)]-1-[[[1-[3-[2-(7-chloro-2-quinolinyl)ethenyl]phenyl]-3-[2-(1-hydroxy-1-methylethyl)phenyl]propyl]thio]methyl]cyclopropaneacetic acid], in series [2], the sputum eosinophilia result was “failure of montelukast to reduce”.
Consider `Cn1c(=O)c2[nH]cnc2n(C)c1=O` [theophylline], for which the “benefit of add-on therapy to inhaled glucocorticosteroids” value with asthma patients is recorded as “no benefit”.
